Results from US5298494A, “Monosaccharides having anti-proliferation and anti-inflammatory activity, compositions and uses thereof” (Greenwich Pharmaceuticals Incorporated, priority 1993, dated 1994).

Assays:
[1] = system: LTB4 production by BUD-8 skin cell fibroblasts; experiment: LTB4 production by BUD-8 skin cell fibroblasts (radioimmunoassay); type: cell-based, human
Procedure: (§1) The effect of the compound of the present invention on the proliferative capacity of human BUD-8 skin fibroblasts was measured with the use of a ^3 H-thymidine incorporation assay using culture conditions which were similar to those used for a Con-A blastogenesis assay, described previously. Cultured skin cells were detached from the surface of tissue culture flasks mechanically with a Teflon scraper. The cells were washed, resuspended in incubation medium and the viabilities were determined. These cells were then plated in triplicate at a density of 2×10^3 cells/0.1 ml/microtiter well for the proliferation assay and a density of 1×10^4 cells/0.1 ml/microtiter well for the assays to quantitate PGE2 and LTB4. To these cells was added incubation medium containing indomethacin to inhibit prostaglandin production, or nordihydroguaiaretic acid (NDGA) to inhibit leukotriene production (positive controls).
(§2) After 18 hours of culture, samples of the BUD-8 skin cell supernatants were collected from one set of microtiter plates and frozen until assayed for PGE2 or for LTB4 content using the radioimmunoassays described below.
Levels of LTB4 in aliquots of BUD-8 skin cell cultures supernatants were quantitated by radioimmunoassay (New England Nuclear). Briefly, into each polyproplyene tube were mixed 0.1 ml anti-LTB4, 0.1. ml ^3 H-LTB4 and 0.1 ml LTB4 standard or LTB4 containing sample. The BUD-8 skin cell culture supernatants were used directly in the radioimmunoassay. Tubes were refrigerated overnight. A charcoal solution (0.5 ml of 0.5% charcoal Norit A) was added and each tube was centrifuged. The radioactivity in the supernatant was then counted in a liquid scintillation counter.

[2] = system: PGE2 production by BUD-8 skin cell fibroblasts; experiment: PGE2 production by BUD-8 skin cell fibroblasts (radioimmunoassay); type: cell-based, human
Procedure: as §1, §2
A radioinmunoassay (New England Nuclear) was used to quantitate PGE2 levels in BUD-8 skin cell culture supernatants. Briefly, into each polypropylene tube were mixed 0.1 ml anti-PGE2, 0.1 ml ^125 1-PGE2 and 0.1 ml PGE2 standard or PGE2 containing sample. The BUD-8 skin culture supernatants were diluted 1:2 prior to addition to the radioimmunoassay. Tubes were refrigerated overnight. A polyethylene glycol solution (16%, 6,000 m.w.) was then added to precipitate immune complexes and the radioactivity in the precipitate was counted in a gamma counter.

[3] = system: BUD-8 human skin fibroblasts; experiment: Fibroblast assay: proliferation of BUD-8 skin cell fibroblasts; type: cell-based
Procedure: The human skin cell fibroblast line, BUD-8 was obtained prior to each assay from the American Type Culture Collection. This is a fibroblast-like cell line which was originally derived from the normal skin of a person.
BUD-8 cell cultures were expanded for use in 25 cm^2 flasks at 37° C. in an atmosphere of 5% CO2 in air. At approximately 4-5 five day intervals, or when confluence was reached, the cells were passaged. This was accomplished by detaching the cells with a Teflon scraper, washing and reseeding the cells at a lower density into fresh tissue culture flasks.
as §1
After 3 days of culture, 1 uCi ^3 H-thymidine was added in a 50 ul volume to each culture well of the microtiter plates. Eighteen hours later, each of the BUD-8 cultures was examined morphologically for evidence of compound-induced toxicity such as cell rounding or granularity. The thymidine-pulsed cells were then precipitated and the amount of ^3 H-thymidine incorporated was counted in a liquid scintillation counter.
The concentrations of the compounds of the invention which were used in these assays were:
The incubation medium used for culturing the BUD-8 cells was RPMI-1640 medium containing 10% fetal bovine serum, 100 ug/ml streptomycin, 100 U/ml penicillin, 0.2M Hepes buffer solution, 5×10^-5 M 2-mercaptoethanol and 2 mM glutamine.

[4] = system: GS-109-V-20 human skin cell fibroblasts; experiment: Fibroblast assay: proliferation of GS-109-V-20 skin cell fibroblasts; type: cell-based
Procedure: The effect of methyl 3-O-3'-(N',N'-dimethylamino-n-propyl)-6-deoxy-D-glucopyranoside on the proliferative capacity of human GS-109-V-20 skin fibroblasts was measured with the use of ^3 H-thymidine incorporation assay. Cultured skin cells were detached from the surface of tissue culture flasks mechanically with a Teflon scraper. The cells were washed, resuspended in incubation medium and the viabilities determined. These cells were then plated in triplicate at a density of 1×10^3 cells/0.1 ml/microtiter well. To these cells was added 0.1 ml incubation medium containing the methyl 3-O-3'-(N',N'-dimethylamino-n-propyl)-6-deoxy-D-glucopyranoside compound.
After 3 days of culture, 1#uCi ^3 H-thymidine was added in 50 ul volume to each culture well of the microtiter plates. Eighteen hours later, each of the GS-109-V-20 cultures was examined morphologically for evidence of drug-induced toxicity such as cell rounding or granularity. The ^3 H-thymidine-pulsed cells were then precipitated and the amount of ^3 H-thymidine incorporation was counted on a liquid scintillation counter.
Methyl 3-O-3'-(N',N'-dimethylamino-n-propyl)-6-deoxy-D-glucopyranoside was suspended directly into the medium by extensive sonication, without being filter-sterilized. A range of doses of this compound was used to measure effects of this compound upon GS-109-V-20 cell proliferation. The following doses were used:
The human skin cell fibroblast line, GS-109-V-20, was obtained from the American Type Culture-Collection. […] These cells were selected for use because they are considered to exist in an initiated state, as opposed to being normal or transformed, and have a more extensive population doubling time and survival period in culture than do normal fibroblasts. In this regard, they would more closely reflect the biological characteristics of psoriatic or rheumatoid synovial fibroblasts which also proliferate more extensively than do normal fibroblasts, but not as extensively as immortalized transformed tumor cells.
The number of GS-109-V-20 cells was expanded for use in the described assays by culture in 25 cm^2 flasks at 37° C. in an atmosphere of 5% CO2 in air. At approximately 4-5 day intervals, or when confluence was reached, the cells were passaged. This was accomplished by detaching the cells by trypsinization, washing and reseeding the cells at a lower density into fresh tissue culture flasks.

[5] = system: T lymphocytes (normal mouse spleen cells) stimulated with ConA; experiment: Mouse Spleen Cell ConA Blastogenesis Assay; type: cell-based, mouse (C57Bl/6); conditions: control compound, concentration not given
[6] = concentration not given, 1080 min

## CC1(C)OC2OC3C(O)COC3(O)C2O1 [IV, (3S) 1,2-O-isopropylidene-α-D-ribo-hexos-3-ulose-1,4:3,6-difuranose]
[1]
  effect on LTB4 production in words: significantly decrease of levels of both pro-inflammatory mediators are seen at several non-toxic doses
[1]; 1 ug/ml
  LTB4 in supernatant (Table XXI): 36.4 ± 5.2 pg LTB4 100 ul supernatant
  calculated LTB4 produced/10^5 BUD-8 cells: 1,621 pg per 10^5 cells
[1]; 10 ug/ml
  LTB4 in supernatant (Table XXI): 19.9 ± 3.8 pg LTB4 100 ul supernatant
[1]; 25 ug/ml
  LTB4 in supernatant (Table XXI): 17.7 ± 3.8 pg LTB4 100 ul supernatant
  calculated LTB4 produced/10^5 BUD-8 cells: 683 pg per 10^5 cells
[1]; 100 ug/ml
  LTB4 in supernatant (Table XXI): 17.3 ± 0.9 pg LTB4 100 ul supernatant
  calculated LTB4 produced/10^5 BUD-8 cells: 665 pg per 10^5 cells
[1]; 300 ug/ml
  LTB4 in supernatant (Table XXI): 25.7 ± 5.0 pg LTB4 100 ul supernatant
  calculated LTB4 produced/10^5 BUD-8 cells: 1,083 pg per 10^5 cells
[1]; 750 ug/ml
  LTB4 in supernatant (Table XXI): 23.5 ± 0.2 pg LTB4 100 ul supernatant
  calculated LTB4 produced/10^5 BUD-8 cells: 973 pg per 10^5 cells
[1]; Homo sapiens, Fibroblast, 18 h, 1 ug/ml, read-out: % Effect on LTB4 production
  inhibition at 1 µg/mL: -2%
[1]; Homo sapiens, Fibroblast, 18 h, 10 ug/ml, read-out: % Effect on LTB4 production
  inhibition at 10 µg/mL: 45%
[1]; Homo sapiens, Fibroblast, 18 h, 25 ug/ml, read-out: % Effect on LTB4 production
  inhibition at 25 µg/mL: 51%
[1]; Homo sapiens, Fibroblast, 18 h, 100 ug/ml, read-out: % Effect on LTB4 production
  inhibition at 100 µg/mL: 52%
[1]; Homo sapiens, Fibroblast, 18 h, 300 ug/ml, read-out: % Effect on LTB4 production
  inhibition at 300 µg/mL: 28%
[1]; Homo sapiens, Fibroblast, 18 h, 750 ug/ml, read-out: % Effect on LTB4 production
  inhibition at 750 µg/mL: 35%
[2]
  effect on PGE2 production in words: significantly decrease of levels of both pro-inflammatory mediators are seen at several non-toxic doses
[2]; 1 ug/ml
  PGE2 in supernatant: 7.1 ± 1.0 pg PGE2 /50 ul supernatant
  calculated PGE2 produced/10^5 BUD-8 cells: 336 pg per 10^5 cells
[2]; 10 ug/ml
  PGE2 in supernatant: 7.5 ± 0.9 pg PGE2 /50 ul supernatant
[2]; 25 ug/ml
  calculated PGE2 produced/10^5 BUD-8 cells: 366 pg per 10^5 cells
[2]; 100 ug/ml
  PGE2 in supernatant: 13.6 ± 4.4 pg PGE2 /50 ul supernatant
  calculated PGE2 produced/10^5 BUD-8 cells: 850 pg per 10^5 cells
[2]; 300 ug/ml
  PGE2 in supernatant: 23.7 ± 1.5 pg PGE2 /50 ul supernatant
  calculated PGE2 produced/10^5 BUD-8 cells: 1654 pg per 10^5 cells
[2]; 750 ug/ml
  PGE2 in supernatant: 4.0 ± 0.5 pg PGE2 /50 ul supernatant
  calculated PGE2 produced/10^5 BUD-8 cells: 82 pg per 10^5 cells
[2]; Homo sapiens, Fibroblast, 18 h, 1 ug/ml, read-out: % Effect on PGE2 production
  inhibition at 1 µg/mL: 51%
[2]; Homo sapiens, Fibroblast, 18 h, 10 ug/ml, read-out: % Effect on PGE2 production
  inhibition at 10 µg/mL: 52%
[2]; Homo sapiens, Fibroblast, 18 h, 25 ug/ml, read-out: % Effect on PGE2 production
  inhibition at 25 µg/mL: 52%
[2]; Homo sapiens, Fibroblast, 18 h, 100 ug/ml, read-out: % Effect on PGE2 production
  inhibition at 100 µg/mL: 59%
[2]; Homo sapiens, Fibroblast, 18 h, 300 ug/ml, read-out: % Effect on PGE2 production
  inhibition at 300 µg/mL: 67%
[2]; Homo sapiens, Fibroblast, 18 h, 750 ug/ml, read-out: % Effect on PGE2 production
  inhibition at 750 µg/mL: 65%
[3]; 1 ug/ml
  ^3 H-Thymidine uptake by BUD-8 skin cells: 3,607 ± 87 cpm
[3]; 10 ug/ml
  ^3 H-Thymidine uptake by BUD-8 skin cells: 4,077 ± 374 cpm
[3]; 25 ug/ml
  ^3 H-Thymidine uptake by BUD-8 skin cells: 3,791 ± 451 cpm
[3]; 100 ug/ml
  ^3 H-Thymidine uptake by BUD-8 skin cells: 4,032 ± 3 cpm
[3]; 300 ug/ml
  ^3 H-Thymidine uptake by BUD-8 skin cells: 2,882 ± 387 cpm
[3]; 750 ug/ml
  ^3 H-Thymidine uptake by BUD-8 skin cells: 2,658 ± 247 cpm
[3]; Homo sapiens, Skin fibroblast, 1 ug/ml, read-out: % Effect on BUD-8 proliferation
  inhibition at 1 µg/mL: 51%
[3]; Homo sapiens, Skin fibroblast, 10 ug/ml, read-out: % Effect on BUD-8 proliferation
  inhibition at 10 µg/mL: 44%
[3]; Homo sapiens, Skin fibroblast, 25 ug/ml, read-out: % Effect on BUD-8 proliferation
  inhibition at 25 µg/mL: 48%
[3]; Homo sapiens, Skin fibroblast, 100 ug/ml, read-out: % Effect on BUD-8 proliferation
  inhibition at 100 µg/mL: 45%
[3]; Homo sapiens, Skin fibroblast, 300 ug/ml, read-out: % Effect on BUD-8 proliferation
  inhibition at 300 µg/mL: 61%
[3]; Homo sapiens, Skin fibroblast, 750 ug/ml, read-out: % Effect on BUD-8 proliferation
  inhibition at 750 µg/mL: 64%

## COc1ccc2c(c1)c(CC(=O)O)c(C)n2C(=O)c1ccc(Cl)cc1 [Indo., indomethacin, reference compound]
[1]; concentration not given
  LTB4 in supernatant (positive control): 39.4 ± 5.3 pg LTB4 100 ul supernatant
  calculated LTB4 production/10^5 BUD-8 cells (positive control): 1,771 pg per 10^5 cells
[1]; [6]
  % effect on LTB4 production (positive control): +10%
[2]; concentration not given
  PGE2 in supernatant (positive control): 5.3 ± 0.5 pg PGE2 /50 ul supernatant
  calculated PGE2 production/10^5 BUD-8 cells (positive control): 187 pg per 10^5 cells
[2]; [6]
  % effect on PGE2 production (positive control): -66%
[4]; 2 × 10^-6 M Indomethacin, 2 × 10^-6 N NDGA
  ^3 H-Thymidine uptake by GS-109-V-20 skin cells (control compound): 3,317 ± 351 cpm
[4]; Homo sapiens, Fibroblast, read-out: % effect on GS-109-V-20 proliferation (control compound)
  inhibition at 2 µM: 14%
[5]; ConA 1 ug/ml
  % effect on ConA blastogenic response (positive control): +4%
  Blastogenic response of normal spleen cells to Con-A (positive control): 57.7 ± 8.7 × 10^-3 cpm
[5]; ConA 4 ug/ml
  % effect on ConA blastogenic response (positive control): -17%
  Blastogenic response of normal spleen cells to Con-A (positive control): 70.0 ± 5.6 × 10^-3 cpm
[3]; concentration not given
  % effect on BUD-8 proliferation (positive control): -17%
  ^3 H-Thymidine uptake by BUD-8 skin cells (positive control): 6,043 ± 184 cpm
